Test results as given in ChEMBL document CHEMBL3259734, “Cepharanthine inhibited HIV-1 cell-cell transmission and cell-free infection via modification of cell membrane fluidity” (Bioorg Med Chem Lett, 2014).
In brackets after ≈: the same amount, converted by molar mass. Activity calls are given as the source filed them. No cut-off for these calls is given here.

What was measured:
[1] = Cytotoxicity against human TZM-bl cells assessed as cell growth inhibition at 1 to 10 ug/ml washout after 1 hr measured at 24 hrs by MTT assay; assay type: cell-based
MOLT-4 [2] = assay: Reduction in membrane fluidity in human MOLT4 cells assessed as fluorescence polarization of DPH by spectrophotofluorometry; assay type: functional, cell-based
MOLT-4 [3] = assay: Inhibition of HIV1 envelope Env-dependent cell fusion in JurkatHXBc2 cells expressing Env co-cultured with 1 hr at compound treated PKH67-labelled human MOLT4 cells at 1:1 ratio for 24 hrs by fluorescent microscopy; assay type: cell-based; details: Human immunodeficiency virus 1
[4] = Cytotoxicity against human PHA-blast cells from CBMC assessed as cell growth inhibition at 1 to 10 ug/ml washout after 1 hr measured at 24 hrs by MTT assay; assay type: cell-based
[5] = system: Human immunodeficiency virus 1; assay: Antiviral activity against HIV1 NL4.3 infected in human PHA-blast cells from PBMC assessed as reduction in viral production measured as p24 protein expression cells pretreated for 1 hr with compound at 1 to 5 ug/ml and washed 1 hr after infection measured at day 4 post infection by ELISA; assay type: functional, organism-based
MOLT-4 [6] = assay: Cytotoxicity against human MOLT4 cells assessed as cell growth inhibition up to 20 ug/ml washout after 1 hr measured at 24 hrs by MTT assay; assay type: cell-based; details: molt-4, 1 h
PBMC = assay: Cytotoxicity against human PHA-blast cells from PBMC assessed as cell growth inhibition at 1 to 10 ug/ml washout after 1 hr measured at 24 hrs by MTT assay; assay type: cell-based
MOLT-4 [7] = assay: Inhibition of HIV1 envelope Env-dependent cell fusion in JurkatHXBc2 cells expressing Env co-cultured with 1 hr at compound treated PKH67-labelled human MOLT4 cells at 1:1 ratio for 24 hrs by flow cytometry; assay type: cell-based; details: Human immunodeficiency virus 1
[8] = system: Human immunodeficiency virus 1; assay: Antiviral activity against HIV1 NL4.3 infected in human PHA-blast cells from PBMC assessed as reduction in viral production measured as p24 protein expression cells pretreated for 1 hr with compound at 1 to 5 ug/ml and washed 1 hr after infection measured at day 4 post infection by flow cytometry; assay type: functional, organism-based
HEK-293T = assay: Suppression of syncytial formation in HIV1 envelope Env-GFP expressing HEK293T cells co-cultured with 1 hr at up to 5 ug/ml compound treated human TZM-bl cells by fluorescent microscopy; assay type: cell-based; details: Human immunodeficiency virus 1
MOLT-4 [9] = assay: Cytotoxicity against human MOLT4 cells assessed as cell growth inhibition at 1 to 10 ug/ml washout after 1 hr measured at 24 hrs by MTT assay; assay type: cell-based
[10] = Cytotoxicity against human MOLT4 cells assessed as cell growth inhibition after 24 hrs by MTT assay; assay type: cell-based; details: MOLT-4 cells

SMILES: COc1ccc2cc1Oc1ccc(cc1)C[C@H]1c3c(cc4c(c3Oc3cc5c(cc3OC)CCN(C)[C@@H]5C2)OCO4)CCN1C [CEPHARANTHINE]
- Activity [1]: Non-toxic
- Activity (MOLT-4 [2]): Dose-dependent effect
- inhibition (MOLT-4 [3]): Dose-dependent effect
- Activity [4]: Non-toxic
- inhibition [5]: Active
- Activity (MOLT-4 [6]): Non-toxic
- Activity (PBMC): Non-toxic
- inhibition (MOLT-4 [7]): Dose-dependent effect
- inhibition [8]: Active
- Activity (HEK-293T): Active
- Activity (MOLT-4 [9]): Non-toxic
- CC50 at 24 h [10]: 10 µg/mL (≈ 16.5 µM)
